How the values were obtained:
[1] = DRUGMATRIX: Imidazoline I2, Central radioligand binding (ligand: [3H] Idazoxan); type: cell membranes, Rattus norvegicus, Wistar, Cerebral cortex, Membrane; settings: Not Active = under 50% inhibition at 10 µM
[2] = DRUGMATRIX: Sodium/nucleoside co-transporter radioligand binding (ligand: nitrobenzylthioinosine); type: cell membranes, Cavia porcellus, Dunkin-Hartley, Cerebral cortex, Membrane; settings: Not Active = under 50% inhibition at 10 µM
[3] = biological target: T1, Muscarinic acetylcholine receptor M4 (Homo sapiens, UniProt P08173); type: cell membranes, CHO-K1, Membrane; settings: cho-k1; further: in other assays of this panel Not Active means under 50% inhibition at 10 µM
T1 sequence (P08173 whole entry): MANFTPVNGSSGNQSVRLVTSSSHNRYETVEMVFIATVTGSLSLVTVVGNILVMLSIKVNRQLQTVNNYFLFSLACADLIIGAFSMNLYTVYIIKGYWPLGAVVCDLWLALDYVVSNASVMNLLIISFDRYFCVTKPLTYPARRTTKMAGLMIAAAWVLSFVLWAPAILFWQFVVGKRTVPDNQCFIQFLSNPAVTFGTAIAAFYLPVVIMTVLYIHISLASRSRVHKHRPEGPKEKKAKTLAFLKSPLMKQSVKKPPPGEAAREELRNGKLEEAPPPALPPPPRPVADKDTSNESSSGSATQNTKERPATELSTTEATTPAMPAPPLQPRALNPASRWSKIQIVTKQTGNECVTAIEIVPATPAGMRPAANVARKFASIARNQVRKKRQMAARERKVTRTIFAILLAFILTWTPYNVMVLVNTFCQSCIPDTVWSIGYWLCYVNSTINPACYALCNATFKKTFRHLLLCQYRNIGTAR

Insulin receptor = Insulin receptor (Rattus norvegicus, UniProt P15127); type: cell membranes, Wistar, Liver, Membrane; further: in other assays of this panel Not Active means under 50% inhibition at 10 µM
Sequence of Insulin receptor (P15127 27-759 limits assumed): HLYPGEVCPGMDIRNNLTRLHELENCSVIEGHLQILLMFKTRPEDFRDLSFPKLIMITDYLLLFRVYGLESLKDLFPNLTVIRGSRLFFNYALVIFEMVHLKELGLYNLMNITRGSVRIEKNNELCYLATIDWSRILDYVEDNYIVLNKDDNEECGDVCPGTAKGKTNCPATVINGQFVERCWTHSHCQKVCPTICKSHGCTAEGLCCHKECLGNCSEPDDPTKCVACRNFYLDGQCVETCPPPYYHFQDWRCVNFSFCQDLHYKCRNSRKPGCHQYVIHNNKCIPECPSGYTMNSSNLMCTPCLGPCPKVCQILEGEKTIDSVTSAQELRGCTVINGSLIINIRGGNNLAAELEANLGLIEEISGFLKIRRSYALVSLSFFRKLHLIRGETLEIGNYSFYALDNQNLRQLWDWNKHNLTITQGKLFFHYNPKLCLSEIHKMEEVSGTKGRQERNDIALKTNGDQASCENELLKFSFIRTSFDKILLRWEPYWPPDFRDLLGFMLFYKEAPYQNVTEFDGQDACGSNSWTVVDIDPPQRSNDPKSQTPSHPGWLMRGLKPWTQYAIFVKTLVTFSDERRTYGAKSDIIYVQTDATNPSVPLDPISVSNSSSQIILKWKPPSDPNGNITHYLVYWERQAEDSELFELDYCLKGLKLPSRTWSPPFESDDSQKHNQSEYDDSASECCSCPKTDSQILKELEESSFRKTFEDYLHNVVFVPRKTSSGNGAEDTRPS
Sequence of Insulin receptor (P15127 764-1383 limits assumed): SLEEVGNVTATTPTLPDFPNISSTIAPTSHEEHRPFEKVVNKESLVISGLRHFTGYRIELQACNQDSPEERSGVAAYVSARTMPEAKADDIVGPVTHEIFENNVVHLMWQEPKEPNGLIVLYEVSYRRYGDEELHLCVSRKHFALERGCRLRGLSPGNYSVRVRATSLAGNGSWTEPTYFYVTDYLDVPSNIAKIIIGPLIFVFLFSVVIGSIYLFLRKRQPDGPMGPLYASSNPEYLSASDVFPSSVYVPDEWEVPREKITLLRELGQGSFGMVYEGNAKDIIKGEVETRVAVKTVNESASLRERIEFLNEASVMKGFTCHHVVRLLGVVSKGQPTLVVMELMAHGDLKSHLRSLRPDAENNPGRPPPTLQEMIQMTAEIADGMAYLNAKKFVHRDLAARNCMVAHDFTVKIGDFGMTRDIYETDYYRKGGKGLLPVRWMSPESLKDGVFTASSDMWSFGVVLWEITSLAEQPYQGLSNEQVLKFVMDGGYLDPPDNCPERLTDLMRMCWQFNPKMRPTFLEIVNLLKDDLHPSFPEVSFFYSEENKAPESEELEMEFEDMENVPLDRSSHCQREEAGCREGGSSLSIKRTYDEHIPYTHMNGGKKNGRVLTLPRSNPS

[4] = biological target: Beta-2 adrenergic receptor (Homo sapiens, UniProt P07550); assay: DRUGMATRIX: Adrenergic beta2 radioligand binding (ligand: [3H] CGP-12177); type: cell membranes, Membrane; settings: cho; Not Active = under 50% inhibition at 10 µM
Sequence of Beta-2 adrenergic receptor (P07550 whole entry): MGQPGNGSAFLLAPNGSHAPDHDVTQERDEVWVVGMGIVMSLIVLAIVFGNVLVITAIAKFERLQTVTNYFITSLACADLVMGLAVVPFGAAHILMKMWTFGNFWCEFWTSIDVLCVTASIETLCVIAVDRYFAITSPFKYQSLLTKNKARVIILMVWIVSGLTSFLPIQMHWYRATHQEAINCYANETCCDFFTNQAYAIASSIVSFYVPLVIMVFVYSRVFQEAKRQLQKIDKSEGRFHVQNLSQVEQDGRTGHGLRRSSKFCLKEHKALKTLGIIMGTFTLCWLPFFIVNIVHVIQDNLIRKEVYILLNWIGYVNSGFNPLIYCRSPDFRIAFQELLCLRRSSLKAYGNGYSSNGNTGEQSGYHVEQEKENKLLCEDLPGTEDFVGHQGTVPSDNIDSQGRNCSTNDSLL

[5] = biological target: T2, Cholecystokinin receptor type A (Homo sapiens, UniProt P32238); type: cell membranes, Membrane; settings: 1321-n1; further: in other assays of this panel Not Active means under 50% inhibition at 10 µM
T2 sequence (P32238 whole entry): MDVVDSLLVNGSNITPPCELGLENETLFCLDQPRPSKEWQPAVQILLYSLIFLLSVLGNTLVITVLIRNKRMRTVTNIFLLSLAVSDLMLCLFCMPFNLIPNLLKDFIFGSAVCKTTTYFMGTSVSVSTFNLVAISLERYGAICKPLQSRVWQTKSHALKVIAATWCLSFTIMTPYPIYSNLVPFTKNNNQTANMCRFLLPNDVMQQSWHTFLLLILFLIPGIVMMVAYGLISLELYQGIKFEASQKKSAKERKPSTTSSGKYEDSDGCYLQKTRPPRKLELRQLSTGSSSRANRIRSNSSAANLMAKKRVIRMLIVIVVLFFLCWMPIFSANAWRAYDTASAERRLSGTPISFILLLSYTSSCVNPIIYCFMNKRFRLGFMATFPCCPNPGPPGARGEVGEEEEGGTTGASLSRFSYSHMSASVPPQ

[6] = DRUGMATRIX: Leukotriene, BLT (LTB4) radioligand binding (ligand: [3H]LTB4); type: cell membranes, Membrane; settings: u-937; Not Active = under 50% inhibition at 10 µM
[7] = biological target: T3, C-X-C chemokine receptor type 1 (Homo sapiens, UniProt P25024); further: in other assays of this panel Not Active means under 50% inhibition at 10 µM
T3 sequence (P25024 whole entry): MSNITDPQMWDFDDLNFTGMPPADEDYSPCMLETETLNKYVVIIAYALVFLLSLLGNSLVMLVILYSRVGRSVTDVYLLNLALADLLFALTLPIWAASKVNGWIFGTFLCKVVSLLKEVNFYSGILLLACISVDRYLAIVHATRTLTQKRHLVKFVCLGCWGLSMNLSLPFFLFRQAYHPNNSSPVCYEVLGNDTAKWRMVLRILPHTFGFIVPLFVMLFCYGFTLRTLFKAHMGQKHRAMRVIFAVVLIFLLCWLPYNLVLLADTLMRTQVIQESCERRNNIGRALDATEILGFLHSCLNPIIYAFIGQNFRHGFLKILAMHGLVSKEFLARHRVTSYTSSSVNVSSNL

[8] = biological target: 5-hydroxytryptamine receptor 4 (Cavia porcellus, UniProt O70528); type: cell membranes, Dunkin-Hartley, Striatum, Membrane; further: in other assays of this panel Not Active means under 50% inhibition at 10 µM
Sequence of 5-hydroxytryptamine receptor 4 (O70528 whole entry): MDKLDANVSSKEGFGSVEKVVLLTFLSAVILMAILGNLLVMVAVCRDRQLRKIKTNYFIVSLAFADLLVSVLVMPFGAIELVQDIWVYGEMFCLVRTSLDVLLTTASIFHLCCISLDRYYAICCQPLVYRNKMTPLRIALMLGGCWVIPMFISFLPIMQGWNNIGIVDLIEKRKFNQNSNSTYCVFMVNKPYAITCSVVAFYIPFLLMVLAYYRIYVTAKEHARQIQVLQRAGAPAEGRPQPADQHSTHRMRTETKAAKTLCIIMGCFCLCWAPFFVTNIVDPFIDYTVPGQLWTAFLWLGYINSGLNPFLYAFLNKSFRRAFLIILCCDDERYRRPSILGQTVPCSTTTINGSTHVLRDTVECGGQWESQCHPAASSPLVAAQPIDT

Histamine H2 receptor = Histamine H2 receptor (Homo sapiens, UniProt P25021); type: cell membranes, CHO-K1, Membrane; further: in other assays of this panel Not Active means under 50% inhibition at 10 µM
Sequence of Histamine H2 receptor (P25021 whole entry): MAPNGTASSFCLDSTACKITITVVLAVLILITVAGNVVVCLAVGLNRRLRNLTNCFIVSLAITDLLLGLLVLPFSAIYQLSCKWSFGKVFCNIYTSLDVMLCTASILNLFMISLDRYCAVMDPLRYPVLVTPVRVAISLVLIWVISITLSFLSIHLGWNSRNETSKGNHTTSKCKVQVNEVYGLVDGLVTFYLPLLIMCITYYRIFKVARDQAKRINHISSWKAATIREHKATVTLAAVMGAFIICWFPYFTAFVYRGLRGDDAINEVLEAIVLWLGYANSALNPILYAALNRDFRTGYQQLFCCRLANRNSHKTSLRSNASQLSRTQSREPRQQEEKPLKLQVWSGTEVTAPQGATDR

Melanocortin receptor 3 = Melanocortin receptor 3 (Homo sapiens, UniProt P41968); type: cell membranes, Membrane; settings: hek293; further: in other assays of this panel Not Active means under 50% inhibition at 10 µM
Sequence of Melanocortin receptor 3 (P41968 whole entry): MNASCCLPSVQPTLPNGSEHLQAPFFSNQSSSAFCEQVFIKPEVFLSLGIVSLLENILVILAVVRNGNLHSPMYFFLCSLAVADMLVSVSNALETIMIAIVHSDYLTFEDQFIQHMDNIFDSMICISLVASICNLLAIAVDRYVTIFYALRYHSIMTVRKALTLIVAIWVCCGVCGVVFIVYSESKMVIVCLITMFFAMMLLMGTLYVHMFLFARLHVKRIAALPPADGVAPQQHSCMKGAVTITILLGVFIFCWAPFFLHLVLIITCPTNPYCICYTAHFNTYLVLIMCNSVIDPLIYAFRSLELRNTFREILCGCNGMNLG

Cytochrome P450 2D6 = Cytochrome P450 2D6 (Homo sapiens, UniProt P10635); settings: bti-tn-5b1-4; further: in other assays of this panel Not Active means under 50% inhibition at 10 µM
Sequence of Cytochrome P450 2D6 (P10635 whole entry): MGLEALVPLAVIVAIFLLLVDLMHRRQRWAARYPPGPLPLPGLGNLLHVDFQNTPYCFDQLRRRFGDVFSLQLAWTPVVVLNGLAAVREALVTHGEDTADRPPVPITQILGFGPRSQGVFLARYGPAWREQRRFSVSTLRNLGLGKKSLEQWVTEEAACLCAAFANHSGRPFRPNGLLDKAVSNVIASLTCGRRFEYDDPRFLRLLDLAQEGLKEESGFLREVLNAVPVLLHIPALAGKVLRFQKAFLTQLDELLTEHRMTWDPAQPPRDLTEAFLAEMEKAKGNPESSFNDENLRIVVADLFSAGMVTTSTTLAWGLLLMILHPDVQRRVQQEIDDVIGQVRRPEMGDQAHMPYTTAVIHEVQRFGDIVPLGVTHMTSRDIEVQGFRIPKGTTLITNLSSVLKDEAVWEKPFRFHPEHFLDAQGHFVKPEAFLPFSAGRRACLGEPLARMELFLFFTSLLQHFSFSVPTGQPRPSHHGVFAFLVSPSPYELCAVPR

Estrogen receptor beta = Estrogen receptor beta (Homo sapiens, UniProt Q92731); settings: sf9; further: in other assays of this panel Not Active means under 50% inhibition at 10 µM
Sequence of Estrogen receptor beta (Q92731 whole entry): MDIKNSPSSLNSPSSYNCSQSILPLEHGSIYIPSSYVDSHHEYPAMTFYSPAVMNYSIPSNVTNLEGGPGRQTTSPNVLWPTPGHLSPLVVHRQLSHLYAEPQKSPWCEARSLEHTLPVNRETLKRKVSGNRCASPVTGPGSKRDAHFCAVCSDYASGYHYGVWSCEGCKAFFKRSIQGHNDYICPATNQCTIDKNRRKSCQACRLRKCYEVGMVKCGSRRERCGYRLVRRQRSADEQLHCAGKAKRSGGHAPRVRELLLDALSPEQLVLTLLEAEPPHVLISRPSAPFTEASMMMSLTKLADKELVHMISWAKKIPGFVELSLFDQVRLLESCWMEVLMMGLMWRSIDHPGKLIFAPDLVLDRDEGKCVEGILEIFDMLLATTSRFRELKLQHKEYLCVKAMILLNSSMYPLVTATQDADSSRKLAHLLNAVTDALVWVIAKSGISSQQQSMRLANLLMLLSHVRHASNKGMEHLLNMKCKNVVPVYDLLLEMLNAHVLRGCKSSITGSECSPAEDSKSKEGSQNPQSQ

Cytochrome P450 1A2 = biological target: T4, Cytochrome P450 1A2 (Homo sapiens, UniProt P05177); settings: bti-tn-5b1-4; further: in other assays of this panel Not Active means under 50% inhibition at 10 µM
T4 sequence (P05177 whole entry): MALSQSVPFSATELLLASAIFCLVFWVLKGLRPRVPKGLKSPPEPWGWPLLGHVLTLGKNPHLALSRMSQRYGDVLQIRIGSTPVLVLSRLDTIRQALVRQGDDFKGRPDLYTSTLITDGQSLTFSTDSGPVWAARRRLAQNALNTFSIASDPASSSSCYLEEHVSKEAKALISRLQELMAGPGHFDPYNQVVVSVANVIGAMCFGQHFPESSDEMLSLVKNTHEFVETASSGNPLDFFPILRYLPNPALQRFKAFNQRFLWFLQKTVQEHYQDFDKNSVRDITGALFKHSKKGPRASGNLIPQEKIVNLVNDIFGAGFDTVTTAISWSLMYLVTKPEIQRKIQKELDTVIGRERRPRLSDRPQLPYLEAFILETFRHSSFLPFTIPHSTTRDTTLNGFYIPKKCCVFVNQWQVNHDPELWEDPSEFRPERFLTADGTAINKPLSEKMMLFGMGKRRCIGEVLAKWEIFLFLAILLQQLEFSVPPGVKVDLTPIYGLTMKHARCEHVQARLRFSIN

Compound | IC50 [1] | Ki [1] | IC50 [2] | Ki [2] | IC50 [3] | IC50 (Insulin receptor) | IC50 [4] | IC50 [5] | IC50 [6] | Ki [6] | IC50 [7] | IC50 [8] | IC50 (Histamine H2 receptor; cho-k1) | IC50 (Melanocortin receptor 3) | IC50 (Cytochrome P450 2D6) | Ki (Cytochrome P450 2D6) | IC50 (Estrogen receptor beta) | further results
CC1(C)S[C@@H]2[C@H](NC(=O)[C@H](N)c3ccc(O)cc3)C(=O)N2[C@H]1C(=O)O [AMOXICILLIN] | Not Active | Not Active | Not Active | Not Active | Not Active | Not Active | Not Active | Not Active | Not Active | Not Active | Not Active | Not Active | Not Active | Not Active | Not Active | Not Active | Not Active | 
O=C(O)c1cn(C2CC2)c2cc(N3CCNCC3)c(F)cc2c1=O [CIPROFLOXACIN] | Not Active | Not Active | Not Active | Not Active | Not Active | Not Active | Not Active | Not Active | Not Active | Not Active | Not Active | Not Active | Not Active | Not Active |  |  | Not Active | 
O=C1OCCN1/N=C/c1ccc([N+](=O)[O-])o1 [FURAZOLIDONE] | Not Active | Not Active | Not Active | Not Active | Not Active | Not Active | Not Active | Not Active | Not Active | Not Active | Not Active | Not Active | Not Active | Not Active |  |  | Not Active | 
CNCCC=C1c2ccccc2CCc2ccccc21 [NORTRIPTYLINE] |  |  | Not Active | Not Active |  | Not Active | Not Active | Not Active | Not Active | Not Active | Not Active | Not Active |  | Not Active |  |  | Not Active | IC50 ([1]; read-out: IC50): 3.86 µM; Ki ([1]; read-out: Ki): 2570 nM; IC50 (Histamine H2 receptor; read-out: IC50): 2330 nM; Ki (Histamine H2 receptor; read-out: Ki): 2300 nM; IC50 (Cytochrome P450 1A2): Not Active; Ki (Cytochrome P450 1A2): Not Active
O=c1cc(-c2ccccc2)oc2c1ccc1ccccc12 [ALPHA-NAPHTHOFLAVONE] | Not Active | Not Active | Not Active | Not Active | Not Active | Not Active | Not Active | Not Active | Not Active | Not Active | Not Active | Not Active | Not Active | Not Active | Not Active | Not Active | Not Active | 
Cc1[nH]cnc1CN1CCc2c(c3ccccc3n2C)C1=O [ALOSETRON] | Not Active | Not Active | Not Active | Not Active | Not Active | Not Active | Not Active | Not Active | Not Active | Not Active | Not Active | Not Active | Not Active | Not Active | Not Active | Not Active | Not Active | 
NS(=O)(=O)c1cc2c(cc1Cl)NCNS2(=O)=O [HYDROCHLOROTHIAZIDE] | Not Active | Not Active | Not Active | Not Active | Not Active | Not Active | Not Active | Not Active | Not Active | Not Active | Not Active | Not Active | Not Active | Not Active | Not Active | Not Active | Not Active | 
c1ccc2c(c1)cc1ccc3cccc4ccc2c1c34 | Not Active | Not Active | Not Active | Not Active | Not Active | Not Active | Not Active | Not Active | Not Active | Not Active | Not Active | Not Active | Not Active | Not Active | Not Active | Not Active | Not Active | 
CCCCOC(=O)c1ccc(N)cc1 [BUTAMBEN] | Not Active | Not Active | Not Active | Not Active | Not Active | Not Active | Not Active | Not Active | Not Active | Not Active | Not Active | Not Active | Not Active | Not Active |  |  | Not Active | 
NCC(=O)O [GLYCINE] | Not Active | Not Active | Not Active | Not Active | Not Active | Not Active | Not Active | Not Active | Not Active | Not Active | Not Active | Not Active | Not Active | Not Active |  |  | Not Active | 

Source: ChEMBL document CHEMBL1909046, “DrugMatrix in vitro pharmacology data”
